Test results published in ChEMBL document CHEMBL1142618, “Mycalamide D, a new cytotoxic amide from the New Zealand marine sponge Mycale species” (J Nat Prod, 2000).

How the values were obtained:
Type in all cases: functional, cell-based
P388 = assay: Cytotoxicity against mouse P388 cells after 96 hrs by MTT assay; conditions: P388, 96 h
LLC-PK1 = assay: Cytotoxicity against pig LLC-PK1 cells after 96 hrs by MTT assay; conditions: Sus scrofa, LLC-PK1, 96 h
[1] = Cytotoxicity against human H441 cells after 96 hrs by MTT assay; conditions: NCI-H441, 96 h
SH-SY5Y = assay: Cytotoxicity against human SH-SY5Y cells after 96 hrs by MTT assay

SMILES	IC50 (P388) [nM]	IC50 (LLC-PK1) [nM]	IC50 [1] [nM]	IC50 (SH-SY5Y) [nM]
C=C1C[C@](OC)([C@H](O)C(=O)N[C@H]2OCO[C@H]3[C@@H]2O[C@H](C[C@H](O)CO)C(C)(C)[C@@H]3O)O[C@H](C)[C@@H]1C [MYCALAMIDE D]	65.5	–	–	–
C=C1C[C@](OC)([C@H](O)C(=O)N[C@H]2OCO[C@H]3[C@@H]2O[C@H](C[C@H](O)CO)C(C)(C)[C@@H]3OC)O[C@H](C)[C@@H]1C [MYCALAMIDE A]	5.2	0.65	0.46	0.52
C=C1C[C@](OC)([C@H](O)C(=O)N[C@H]2OCO[C@H]3[C@@H]2O[C@H](C[C@@H](CO)OC)C(C)(C)[C@@H]3OC)O[C@H](C)[C@@H]1C [MYCALAMIDE B]	1.3	19.4	9.3	6.42
